Test system: gene expression in heart tissue
Test: Genome-wide gene expression in heart tissue of old mice fed a resveratrol-supplemented diet (Affymetrix Mouse Genome 430 2.0 array)
Type: in vivo

Measured: Effect of resveratrol on changeing gene expression from old to young profile

Oc1ccc(/C=C/c2cc(O)cc(O)c2)cc1 [resveratrol, 3,4′,5-Trihydroxy-trans-stilbene]
>100%: 1415741_at TPA regulated locus | 1416113_at FK506 binding protein 8 | 1416167_at peroxiredoxin 4 | 1416647_at branched chain ketoacid dehydrogenase E1, alpha polypeptide | 1416648_at dynein, cytoplasmic, heavy chain 1 | 1416698_a_at CDC28 protein kinase 1 | 1416800_at transient receptor potential cation channel, subfamily M, member 7 | 1417149_at procollagen-proline, 2-oxoglutarate 4-dioxygenase (proline 4-hydroxylase), alpha II polypeptide | 1417502_at transmembrane 4 superfamily member 2 | 1417628_at suppressor of Ty 6 homolog (S. cerevisiae) | 1417947_at proliferating cell nuclear antigen | 1417968_a_at methyl-CpG binding domain protein 1 | 1417982_at insulin induced gene 2 | 1418128_at adenylate cyclase 6 | 1418468_at annexin A11 | 1418509_at carbonyl reductase 2 | 1418524_at pericentriolar material 1 | 1418595_at plasma membrane associated protein, S3-12 | 1418648_at EGL nine homolog 3 (C. elegans) | 1418663_at multiple PDZ domain protein | 1418706_at solute carrier family 38, member 3 | 1419034_at casein kinase II, alpha 1 polypeptide | 1419220_at cardiomyopathy associated 1 | 1419665_a_at nuclear protein 1 | 1420620_a_at ring finger protein 13 | 1420727_a_at trimethyllysine hydroxylase, epsilon | 1420834_at vesicle-associated membrane protein 2 | 1420896_at synaptosomal-associated protein 23 | 1420899_at RAB18, member RAS oncogene family | 1420920_a_at ADP-ribosylation factor 1 | 1421468_at potassium inwardly-rectifying channel, subfamily J, member 3 | 1422452_at Bcl2-associated athanogene 3 | 1422799_at HLA-B associated transcript 2 | 1423040_at basic leucine zipper and W2 domains 1 | 1423126_at ATPase, Na+/K+ transporting, beta 3 polypeptide | 1423220_at eukaryotic translation initiation factor 4E | 1423474_at topoisomerase (DNA) I | 1423607_at lumican | 1423845_at expressed sequence AI481750 | 1423898_a_at gene trap locus 6 | 1424164_at mitochondrial ribosomal protein L50 | 1425022_at ubiquitin specific protease 3 | 1425281_a_at delta sleep inducing peptide, immunoreactor | 1425507_at ADP-ribosylation factor related protein 1 | 1425977_a_at serine/threonine kinase 2 | 1426440_at dehydrogenase/reductase (SDR family) member 7 | 1426613_a_at U2 small nuclear ribonucleoprotein B | 1427006_at guanine nucleotide releasing factor 2 | 1427036_a_at eukaryotic translation initiation factor 4, gamma 1 | 1427045_at synaptopodin | 1427245_at ADP-ribosylation factor GTPase activating protein 1 | 1427874_at zinc finger protein 313 | 1429186_a_at cytidine and dCMP deaminase domain containing 1 | 1431054_at LSM6 homolog, U6 small nuclear RNA associated (S. cerevisiae) | 1433558_at disabled homolog 2 (Drosophila) interacting protein | 1433811_at myeloid/lymphoid or mixed lineage-leukemia translocation to 6 homolog (Drosophila) | 1433890_a_at HLA-B-associated transcript 3 | 1433904_at BCL2-antagonist/killer 1 | 1434930_at two pore channel 1 | 1434944_at dystrophia myotonica kinase, B15 | 1435472_at kringle containing transmembrane protein | 1435658_at solute carrier family 27 (fatty acid transporter), member 1 | 1435664_at zinc finger protein 397 | 1436960_at bromodomain containing 3 | 1437892_at Mus musculus transcribed sequences | 1444089_at spectrin beta 2 | 1445186_at stanniocalcin 2 | 1448119_at 2,3-bisphosphoglycerate mutase | 1448185_at homocysteine-inducible, endoplasmic reticulum stress-inducible, ubiquitin-like domain member 1 | 1448277_at polymerase (DNA directed), delta 2, regulatory subunit | 1448307_at Down syndrome critical region homolog 2 (human) | 1448424_at frizzled-related protein | 1448703_at LSM8 homolog, U6 small nuclear RNA associated (S. cerevisiae)

Source: patent publication US20090247646A1, “USE OF RESVERATROL AND DERIVATIVES THEREOF FOR PROMOTING THE WELLNESS STATE IN MAMMALS” (priority 2006, published 2009)
